Series [1] has as its system caterpillars of the armyworm (Spodoptera frugiperda). In words: Spodoptera frugiperda spray test (SPODFR). It counts as in vivo. The following applies: application rate 100 g/ha; maize leaf discs; after 7 days.
In series [2] the test system is adult cat fleas (Ctenocephalides felis). Briefly: Ctenocephalides felis oral test (CTECFE). It is filed as in vivo. The following applies: application rate 100 ppm in citrated cattle blood; after 2 days.
The test system of series [3] is engorged adult female cattle ticks (Boophilus microplus). In words: Boophilus microplus injection test (BOOPMI Inj). It is filed as in vivo. The following applies: application rate 20 μg/animal; injection into abdomen; assessed after 7 days.
In series [4] the test system is greenhouse red spider mite (Tetranychus urticae), OP-resistant. In words: Tetranychus urticae spray test, OP-resistant (TETRUR). It is filed as in vivo. The following applies: application rate 100 g/ha; bean leaf discs; after 6 days.
Series [5] deals with adult houseflies (Musca domestica). Briefly: Musca domestica test (MUSCDO). It is filed as in vivo. The conditions noted are these: application rate 100 ppm; after 2 days.
Series [6] relates to larvae of the mustard beetle (Phaedon cochleariae). In words: Phaedon cochleariae spray test (PHAECO). It counts as in vivo. The conditions noted are these: application rate 100 g/ha; Chinese cabbage leaf discs; after 7 days.
The test system of series [7] is southern root-knot nematode (Meloidogyne incognita). Briefly: Meloidogyne incognita test (MELGIN). It counts as in vivo. The conditions noted are these: application rate 20 ppm; lettuce; after 14 days. The method, then: Meloidogyne incognita Test (MELGIN) Solvent: 125.0 parts by weight of acetone To prepare a suitable active compound preparation, 1 part by weight of active compound is mixed with the stated amount of solvent and the concentrate is diluted with water to the desired concentration. Vessels are filled with sand, active compound solution, an egg/larvae suspension of the southern root-knot nematode (Meloidogyne incognita) and lettuce seeds. The lettuce seeds germinate and the plants develop. On the roots, galls are formed. After 14 days, the nematicidal efficacy in % is determined by the formation of galls. 100% means that no galls have been found; 0% means that the number of galls on the treated plants corresponds to the untreated control.

Series [8] can be described thus: log P determination by HPLC on reversed-phase column (C18), EEC Directive 79/831 Annex V.A8. The following applies: method a): Agilent 1100 LC, Zorbax Eclipse Plus C18, acetonitrile/water with formic acid, gradient 10-95% in 4.25 min, 55° C. It is filed as physicochemical. Here is the method:
Agilent 1100 LC system; 50*4.6 Zorbax Eclipse Plus C18 1.8 micron; mobile phase A: acetonitrile (0.1% formic acid); mobile phase B: water (0.09% formic acid); linear gradient from 10% acetonitrile to 95% acetonitrile in 4.25 min, then 95% acetonitrile for a further 1.25 min; oven temperature 55° C.; flow rate: 2.0 ml/min. Mass detection is carried out via an Agilend MSD system.
^a)Unless indicated otherwise, the following method was used to determine the log P values and masses: The determination of the given log P values was carried out in accordance with EEC Directive 79/831 Annex V.A8 by HPLC (High Performance Liquid Chromatography) on a reversed-phase column (C18). Agilent 1100 LC system; 50*4.6 Zorbax Eclipse Plus C18 1.8 micron; mobile phase A: acetonitrile (0.1% formic acid); mobile phase B: water (0.09% formic acid); linear gradient from 10% acetonitrile to 95% acetonitrile in 4.25 min, then 95% acetonitrile for a further 1.25 min; oven temperature 55° C.; flow rate: 2.0 ml/min. Mass detection is carried out via an Agilend MSD system. ^b)Note for the alternative method for determining log P values and masses: The stated log P values were determined in accordance with EEC Directive 79/831 Annex V.A8 by HPLC (High Performance Liquid Chromatography) using a reversed-phase column (C18). Waters ACQUITY UPLC-MS system; 2.1*50 mm Zorbax Eclipse Plus C18 1.8 μm 600 bar; injection volume: 0.5 ul about 1000 ppm; mobile phase A: acetonitrile (0.1% formic acid); mobile phase B: water (0.085% formic acid); linear gradient from 10% acetonitrile to 95% acetonitrile in 1.5 min, then 95% acetonitrile for a further 0.5 min; oven temperature 60° C.; flow rate: 1.0 ml/min. Mass detection is carried out via a Waters SQD system.

Series [9] relates to cattle ticks (Boophilus microplus) Parkhurst strain, SP-resistant. In words: Boophilus microplus dip test (BOOPMI Dip). It is filed as in vivo. The following applies: application rate 100 ppm, assessed after 7 days. Here is the method: Boophilus microplus—Dip Test (BOOPMI Dip)
Test animals: cattle ticks (Boophilus microplus) Parkhurst strain, SP-resistant
Solvent: dimethyl sulphoxide
10 mg of active compound are dissolved in 0.5 ml of dimethyl sulphoxide. To prepare a suitable formulation, the active compound solution is diluted with water to the concentration desired in each case.
This active compound preparation is pipetted into tubes. 8-10 adult engorged female cattle ticks (Boophilus microplus) are transferred into a further tube with holes. The tube is immersed into the active compound formulation, and all ticks are completely wetted. After the liquid has run out, the ticks are transferred on filter discs into plastic dishes and stored in a climate-controlled room.
The activity is assessed after 7 days by laying of fertile eggs. Eggs whose fertility is not visible from the outside are stored in a climate-controlled cabinet until the larvae hatch after about 42 days. An efficacy of 100% means that none of the ticks has laid any fertile eggs; 0% means that all eggs are fertile.

Series [10] concerns L1 larvae of the Australian sheep blowfly (Lucilia cuprina). Briefly: Lucilia cuprina test (LUCICU). It counts as in vivo. The following applies: application rate 100 ppm; minced horsemeat; after 2 days.
Series [11] relates to Tick nymphs (Amblyomma hebraeum). Briefly: Amblyomma hebaraeum test (AMBYHE), tick nymph immersion. It counts as in vivo. The following applies: application rate 100 ppm; immersion one minute; after 42 days. Here is the method:
Amblyomma hebaraeum Test (AMBYHE) Solvent: dimethyl sulphoxide To produce a suitable preparation of active compound, 10 mg of active compound are mixed with 0.5 ml of dimethyl sulphoxide, and the concentrate is diluted with water to the desired concentration. Tick nymphs (Amblyomma hebraeum) are placed into perforated plastic beakers and immersed in the desired concentration for one minute. The ticks are transferred on filter paper into a Petri dish and stored in a climate-controlled cabinet. After 42 days, the kill in % is determined. 100% means that all of the ticks have been killed; 0% means that none of the ticks have been killed.

With `CCC(=O)NCc1cccc(-c2cnn(-c3c(C(F)(F)F)c(C(F)(F)C(F)(F)F)nn3C)c2)c1` [Ic-1, N-{3-[2′-methyl-5′-(pentafluoroethyl)-4′-(trifluoromethyl)-2′H-1,3′-bipyrazol-4-yl]benzyl}propanamide], the efficacy in % in [1] amounted to 100%; in series [4], 90%; in [6] it was 100%. Besides, the kill in % in series [2], in series [5], in series [10] and in [11] was 100% throughout. The “efficacy (no laying of fertile eggs)” value in [3] and in series [9] was 100% each time. In series [7], the “nematicidal efficacy in % (formation of galls)” value is 90%. For the same compound, in series [8], the chromatographic logP (usually a lipophilicity value derived from retention on a column) is 3.59.
